Data taken from patent publication US4906662A, “Phenol derivatives, their preparation and the use thereof” (Otsuka Pharmaceutical Factory, Inc., priority 1986, dated 1990).
Structures can show the parent of a compound that is named as a salt.

System: carrageenin-induced paw edema
Assay: Anti-inflammatory activity: inhibition of carrageenin-induced paw edema in rats
Assay type: in vivo, rat (S.D. strain, male)
Conditions: Rattus norvegicus, po, 3 h, read-out: Percent inhibition of edema
Description: (1) Anti-inflammatory activity:inhibition of carrageenin-induced paw edema in rats The compound was tested for the above activity according to the method of Winter et al. [Proc. Soc. […] One hour after the test compound was orally given to the animal, 0.1 ml of 1% carrageenin solution was subcutaneously injected into the right footpad. The paw volume was measured 3 hours thereafter, and the resulting increase in the volume was calculated based on the volume before the injection of carrageenin solution. The percent inhibition was determined in comparison with the increase in the control group.

Compound	inhibition in vivo at 5 mg/kg [%]
COc1ccc2c(c1)c(CC(=O)O)c(C)n2C(=O)c1ccc(Cl)cc1 [indomethacin, reference compound]	62

Same assay, conditions: po; 100 mg/kg p.o.; rat, 3 hours after carrageenin; read-out: Percent inhibition of edema

Compound	inhibition in vivo at 100 mg/kg [%]
Cc1cc(Nc2ccccc2)c(C)c(C)c1O [Compound 79, 2,3,6-trimethyl-4-phenylaminophenol]	47
CCCCCCNC(=O)/C=C/c1cccc(Nc2cc(C(C)(C)C)c(O)c(C(C)(C)C)c2)c1 [Compound 66]	15
CC(C)(C)c1cc(Nc2ccc(CC(=O)NN)cc2)cc(C(C)(C)C)c1O [Compound 76, 2,6-di-tert-butyl-4-(4-hydrazinocarbonylmethylphenylamino)phenol]	47
CCCCCC(=O)/C=C/c1cccc(Nc2cc(C(C)(C)C)c(O)c(C(C)(C)C)c2)c1 [Compound 51]	10
CC(C)(C)c1cc(Nc2ccccc2/C=C/C(=O)O)cc(C(C)(C)C)c1O [Compound 48, 2-(3,5-di-tert-butyl-4-hydroxyphenylamino)cinnamic acid]	62
CC(C)(C)c1cc(Nc2cccc(C(N)=O)c2)cc(C(C)(C)C)c1O [Compound 89]	31
CC(C)(C)c1cc(Nc2ccc(S(N)(=O)=O)cc2)cc(C(C)(C)C)c1O [Compound 93]	16
CC(C)(C)c1cc(Nc2ccc(S(C)(=O)=O)cc2)cc(C(C)(C)C)c1O [Compound 92]	35
CC(C)(C)c1cc(Nc2ccc(F)cc2)cc(C(C)(C)C)c1O [Compound 1, 2,6-di-tert-butyl-4-(4-fluorophenylamino)phenol]	57
CC(C)(C)c1cc(Nc2ccccc2O)cc(C(C)(C)C)c1O [Compound 3]	25
CC(C)(C)c1cc(Nc2cccc(C(F)(F)F)c2)cc(C(C)(C)C)c1O [Compound 4]	16
CC(C)(C)c1cc(Nc2cccc(CO)c2)cc(C(C)(C)C)c1O [Compound 31, 2,6-di-tert-butyl-4-(3-hydroxymethylphenylamino)phenol hydrochloride]	33
CC(C)(C)c1cc(Nc2ccccc2Cl)cc(C(C)(C)C)c1O [Compound 2]	12
CC(C)(C)c1cc(Nc2ccc(N)cc2)cc(C(C)(C)C)c1O [Compound 14]	42
CC(C)(C)c1cc(Nc2ccc(Cl)cc2CO)cc(C(C)(C)C)c1O [Compound 38, 2,6-di-tert-butyl-4-(4-chloro-2-hydroxymethylphenylamino)phenol]	79
CC(C)(C)c1cc(Nc2ccc(CC(=O)N3CCOCC3)cc2)cc(C(C)(C)C)c1O [Compound 71]	20
CSc1ccccc1Nc1cc(C(C)(C)C)c(O)c(C(C)(C)C)c1 [Compound 12]	41
CC(C)(C)c1cc(Nc2ccccc2CO)cc(C(C)(C)C)c1O [Compound 32, 2,6-di-tert-butyl-4-(2-hydroxymethylphenylamino)phenol]	74
CC(C)(C)c1cc(Nc2ccccc2)cc(C(C)(C)C)c1O [2,6-di-tert-butyl-4-phenylaminophenol, reference compound]	62
CCCCCCCCCNC(=O)c1ccc(Nc2cc(C(C)(C)C)c(O)c(C(C)(C)C)c2)cc1 [Compound 63]	29
CC(C)(C)c1cc(Nc2ccc(C#N)cc2)cc(C(C)(C)C)c1O [Compound 28, 2,6-di-tert-butyl-4-(4-cyanophenylamino)phenol]	58

Target: T1, 5-lipoxygenase (Cavia porcellus, UniProt A0A286X958)
T1 construct: endogenous in cells; host or cells: guinea pig peritoneal exudate cells (casein-elicited), intact cell suspension
T1 sequence (A0A286X958 1-674): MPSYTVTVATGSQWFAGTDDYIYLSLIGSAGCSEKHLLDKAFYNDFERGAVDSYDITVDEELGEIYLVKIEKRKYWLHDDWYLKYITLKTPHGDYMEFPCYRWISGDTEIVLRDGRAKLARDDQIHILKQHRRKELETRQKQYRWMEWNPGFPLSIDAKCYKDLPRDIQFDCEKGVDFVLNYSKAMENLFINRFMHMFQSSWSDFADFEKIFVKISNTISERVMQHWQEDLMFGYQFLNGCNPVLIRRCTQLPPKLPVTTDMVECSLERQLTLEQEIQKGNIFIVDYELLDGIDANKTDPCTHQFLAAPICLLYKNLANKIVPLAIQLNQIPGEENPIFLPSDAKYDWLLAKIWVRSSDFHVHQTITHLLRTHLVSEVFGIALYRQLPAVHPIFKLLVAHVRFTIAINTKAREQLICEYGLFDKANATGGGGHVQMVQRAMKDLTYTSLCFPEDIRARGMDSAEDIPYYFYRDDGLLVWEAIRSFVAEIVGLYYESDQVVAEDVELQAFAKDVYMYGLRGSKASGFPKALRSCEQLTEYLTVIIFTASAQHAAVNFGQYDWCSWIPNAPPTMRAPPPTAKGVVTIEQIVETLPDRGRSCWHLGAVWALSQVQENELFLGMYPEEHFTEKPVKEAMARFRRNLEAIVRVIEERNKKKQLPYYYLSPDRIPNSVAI
Assay: 5-Lipoxygenase inhibitory activity (5-HETE formation in guinea pig peritoneal exudate cells)
Assay type: cell-based
Conditions: 1 μM; read-out: Percent inhibition of 5-lipoxygenase
Description: (J. Biol. Chem., 256, 4156 (1981)) and to the method of Ochi et al. (J. Biol. Chem., 258, 5754 (1983). More specifically, 2% casein was intraperitoneally given to a guinea pig, which was bleeded to death 14 to 16 hours thereafter. The peritoneal cavity was washed to collect exudate cells, which were suspended in a phosphate buffer containing 1 mM CaCl2 and 5.5 mM glucose to a concentration of 2.5×10^7 cells/ml. The cell suspension was incubated at 30° C. for 2 minutes. The test compound was then added to the cell suspension, followed by incubation for 2 minutes. With addition of 10 μM of A23187 first and then 10 μM of ^14 C-arachidonic acid to the resulting suspension. Then, the suspension was incubated for 3 minutes. […] The arachidonic acid, 5(S)-hydroxy-6,8,11,14-eicosatetraenoic acid (5-HETE) and other portions were thereafter scraped off, and ^14 C was counted by a scintillator.

Compound	inhibition at 1 µM [%]
CC(C)(C)c1cc(Nc2ccc(CC(=O)O)cc2)cc(C(C)(C)C)c1O [Compound 5]	21
Cc1cc(Nc2ccccc2)c(C)c(C)c1O [Compound 79, 2,3,6-trimethyl-4-phenylaminophenol]	87
Cc1cc(Nc2ccc(CC(=O)O)cc2)c2c(c1O)CCCC2 [Compound 104]	55
Cc1ccc(Nc2cc(C(C)(C)C)c(O)c(C(C)(C)C)c2)cc1 [Compound 20]	16
COC(=O)Cc1ccc(Nc2cc(C)c(O)c3c2CCCC3)cc1 [Compound 87, 2-methyl-4-(4-methoxycarbonylmethylphenylamino)-5,6,7,8-tetrahydronaphthol]	89
Cc1ccc(Nc2cc(C)c(O)c(C)c2C)cc1 [Compound 81, 2,3,6-trimethyl-4-(4-methylphenylamino)phenol]	91
CC(C)(C)c1cc(Nc2ccc(CCCC(=O)O)cc2)cc(C(C)(C)C)c1O [Compound 22]	28
COc1ccc(Nc2cc(C)c(O)c(C)c2C)cc1 [Compound 91, 2,3,6-trimethyl-4-(4-methoxyphenylamino)phenol]	95
CC(C)(C)c1cc(Nc2ccc(CCO)cc2)cc(C(C)(C)C)c1O [Compound 33]	52
CC(C)(C)c1cc(Nc2ccc(F)cc2)cc(C(C)(C)C)c1O [Compound 1, 2,6-di-tert-butyl-4-(4-fluorophenylamino)phenol]	24
CC(C)(C)c1cc(Nc2cccc(CO)c2)cc(C(C)(C)C)c1O [Compound 31, 2,6-di-tert-butyl-4-(3-hydroxymethylphenylamino)phenol hydrochloride]	50
CC(C)(C)c1cc(Nc2ccc(C(=O)O)cc2)cc(C(C)(C)C)c1O [Compound 26]	33
Cc1cc(Nc2ccc(Cl)cc2)c(C)c(C)c1O [Compound 94, 2,3,6-trimethyl-4-(4-chlorophenylamino)phenol]	90
CC(C)(C)c1cc(Nc2ccc(N)cc2)cc(C(C)(C)C)c1O [Compound 14]	15
Cc1cc(Nc2ccc(C(=O)O)cc2)c(C)c(C)c1O [Compound 102]	42
CN(C)c1ccc(Nc2cc(C(C)(C)C)c(O)c(C(C)(C)C)c2)cc1 [Compound 42, 4-(4-dimethylaminophenylamino)-2,6-di-tert-butylphenol dihydrochloride]	19
Cc1ccc(Nc2cc(C(C)(C)C)c(O)c(C(C)(C)C)c2)c(C(=O)O)c1 [Compound 29]	19
CC(C)(C)c1cc(Nc2cccc(C(=O)O)c2)cc(C(C)(C)C)c1O [Compound 24, 2,6-di-tert-butyl-4-(3-carboxyphenylamino)phenol]	26
CC(C)(C)c1cc(Nc2ccccc2CO)cc(C(C)(C)C)c1O [Compound 32, 2,6-di-tert-butyl-4-(2-hydroxymethylphenylamino)phenol]	34
CC(C)(C)c1cc(Nc2ccccc2)cc(C(C)(C)C)c1O [2,6-di-tert-butyl-4-phenylaminophenol, reference compound]	2
CC(C)(C)c1cc(Nc2cc(Cl)ccc2O)cc(C(C)(C)C)c1O [Compound 19]	37
Cc1cc(Nc2cccc(CC(=O)O)c2)c(C)c(C)c1O [Compound 103]	41
CCOC(=O)/C=C/c1cccc(Nc2cc(C)c(O)c(C)c2C)c1 [Compound 52, ethyl 3-(4-hydroxy-2,3,5-trimethylphenylamino)cinnamate hydrochloride]	75
COC(=O)Cc1ccc(Nc2cc(C)c(O)c(C)c2C)cc1 [Compound 86, 4-(4-methoxycarbonylmethylphenylamino)-2,3,6-trimethylphenol]	93
CC(=O)c1ccc(Nc2cc(C(C)(C)C)c(O)c(C(C)(C)C)c2)cc1 [Compound 9]	27
Cc1cc(Nc2ccccc2)c2c(c1O)CCCC2 [Compound 80, 2-methyl-4-phenylamino-5,6,7,8-tetrahydronaphthol]	78
CC(Cc1ccc(O)c(O)c1)C(C)Cc1ccc(O)c(O)c1 (stereo not shown) [NDGA, nordihydroguaiaretic acid, reference compound]	45

Same assay, conditions: 10 μM; read-out: Percent inhibition of 5-lipoxygenase

Compound	inhibition at 10 µM [%]
CC(C)(C)c1cc(Nc2ccc(CC(=O)O)cc2)cc(C(C)(C)C)c1O [Compound 5]	46
Cc1cc(Nc2ccccc2)c(C)c(C)c1O [Compound 79, 2,3,6-trimethyl-4-phenylaminophenol]	93
Cc1cc(Nc2ccc(CC(=O)O)cc2)c2c(c1O)CCCC2 [Compound 104]	90
Cc1ccc(Nc2cc(C(C)(C)C)c(O)c(C(C)(C)C)c2)cc1 [Compound 20]	51
COC(=O)Cc1ccc(Nc2cc(C)c(O)c3c2CCCC3)cc1 [Compound 87, 2-methyl-4-(4-methoxycarbonylmethylphenylamino)-5,6,7,8-tetrahydronaphthol]	95
Cc1ccc(Nc2cc(C)c(O)c(C)c2C)cc1 [Compound 81, 2,3,6-trimethyl-4-(4-methylphenylamino)phenol]	95
CC(C)(C)c1cc(Nc2ccc(CCCC(=O)O)cc2)cc(C(C)(C)C)c1O [Compound 22]	67
COc1ccc(Nc2cc(C)c(O)c(C)c2C)cc1 [Compound 91, 2,3,6-trimethyl-4-(4-methoxyphenylamino)phenol]	95
CC(C)(C)c1cc(Nc2ccc(CCO)cc2)cc(C(C)(C)C)c1O [Compound 33]	86
CC(C)(C)c1cc(Nc2ccc(F)cc2)cc(C(C)(C)C)c1O [Compound 1, 2,6-di-tert-butyl-4-(4-fluorophenylamino)phenol]	36
CC(C)(C)c1cc(Nc2cccc(CO)c2)cc(C(C)(C)C)c1O [Compound 31, 2,6-di-tert-butyl-4-(3-hydroxymethylphenylamino)phenol hydrochloride]	88
CC(C)(C)c1cc(Nc2ccc(C(=O)O)cc2)cc(C(C)(C)C)c1O [Compound 26]	71
Cc1cc(Nc2ccc(Cl)cc2)c(C)c(C)c1O [Compound 94, 2,3,6-trimethyl-4-(4-chlorophenylamino)phenol]	96
CC(C)(C)c1cc(Nc2ccc(N)cc2)cc(C(C)(C)C)c1O [Compound 14]	57
CC(C)(C)c1cc(Nc2ccccc2C(=O)O)cc(C(C)(C)C)c1O [Compound 25, 2,6-di-tert-butyl-4-(2-carboxyphenylamino)phenol]	66
Cc1cc(Nc2ccc(C(=O)O)cc2)c(C)c(C)c1O [Compound 102]	90
CN(C)c1ccc(Nc2cc(C(C)(C)C)c(O)c(C(C)(C)C)c2)cc1 [Compound 42, 4-(4-dimethylaminophenylamino)-2,6-di-tert-butylphenol dihydrochloride]	50
Cc1ccc(Nc2cc(C(C)(C)C)c(O)c(C(C)(C)C)c2)c(C(=O)O)c1 [Compound 29]	71
CC(C)(C)c1cc(Nc2cccc(C(=O)O)c2)cc(C(C)(C)C)c1O [Compound 24, 2,6-di-tert-butyl-4-(3-carboxyphenylamino)phenol]	51
CC(C)(C)c1cc(Nc2ccccc2CO)cc(C(C)(C)C)c1O [Compound 32, 2,6-di-tert-butyl-4-(2-hydroxymethylphenylamino)phenol]	63
CC(C)(C)c1cc(Nc2ccccc2)cc(C(C)(C)C)c1O [2,6-di-tert-butyl-4-phenylaminophenol, reference compound]	62
CC(C)(C)c1cc(Nc2cc(Cl)ccc2O)cc(C(C)(C)C)c1O [Compound 19]	58
Cc1cc(Nc2cccc(CC(=O)O)c2)c(C)c(C)c1O [Compound 103]	91
CCOC(=O)/C=C/c1cccc(Nc2cc(C)c(O)c(C)c2C)c1 [Compound 52, ethyl 3-(4-hydroxy-2,3,5-trimethylphenylamino)cinnamate hydrochloride]	95
COC(=O)Cc1ccc(Nc2cc(C)c(O)c(C)c2C)cc1 [Compound 86, 4-(4-methoxycarbonylmethylphenylamino)-2,3,6-trimethylphenol]	92
CC(=O)c1ccc(Nc2cc(C(C)(C)C)c(O)c(C(C)(C)C)c2)cc1 [Compound 9]	67
Cc1cc(Nc2ccccc2)c2c(c1O)CCCC2 [Compound 80, 2-methyl-4-phenylamino-5,6,7,8-tetrahydronaphthol]	94
